Paper PMC11469747 (Clinical and Translational Science, 2024)

How the values were obtained:
CYP1A2 = molecular target: T1, CYP1A2 (Homo sapiens, UniProt P05177); experiment: Inhibitory DDI evaluation, cocktail incubation in HLM; format: in vitro ADME
T1 sequence (P05177 1-516): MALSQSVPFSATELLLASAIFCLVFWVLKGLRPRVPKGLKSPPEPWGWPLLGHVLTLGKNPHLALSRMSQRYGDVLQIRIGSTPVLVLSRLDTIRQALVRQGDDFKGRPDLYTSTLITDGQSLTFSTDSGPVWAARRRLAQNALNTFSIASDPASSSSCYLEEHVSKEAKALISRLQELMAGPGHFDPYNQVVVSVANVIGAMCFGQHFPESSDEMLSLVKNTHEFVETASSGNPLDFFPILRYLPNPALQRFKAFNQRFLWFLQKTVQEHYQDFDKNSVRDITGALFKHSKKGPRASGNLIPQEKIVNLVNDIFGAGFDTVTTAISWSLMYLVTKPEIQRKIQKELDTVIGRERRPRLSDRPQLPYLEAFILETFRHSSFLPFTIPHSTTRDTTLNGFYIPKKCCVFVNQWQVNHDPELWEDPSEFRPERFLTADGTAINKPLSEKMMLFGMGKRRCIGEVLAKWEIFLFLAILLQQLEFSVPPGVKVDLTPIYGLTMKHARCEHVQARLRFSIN

[1] = Metabolic stability study in HLM; format: in vitro ADME, human; details: for stability in the negative control assay: without HLM, NADPH regenerating system and UDPGA, up to 120 min, 37°C
CYP3A4/5 = experiment: Phase I enzyme determination in HLM with CYP-specific inhibitor ketoconazole; format: in vitro ADME, human; details: HLM with six CYP-specific inhibitors
CYP2E1 = CYP2E1 (Homo sapiens, UniProt P05181); experiment: Inhibitory DDI evaluation, cocktail incubation in HLM; format: in vitro ADME
CYP2C9 = CYP2C9 (Homo sapiens, UniProt P11712); experiment: as above; format: in vitro ADME
CYP2B6 = molecular target: T2, CYP2B6 (Homo sapiens, UniProt P20813); experiment: as above; format: in vitro ADME
T2 sequence (P20813 1-491): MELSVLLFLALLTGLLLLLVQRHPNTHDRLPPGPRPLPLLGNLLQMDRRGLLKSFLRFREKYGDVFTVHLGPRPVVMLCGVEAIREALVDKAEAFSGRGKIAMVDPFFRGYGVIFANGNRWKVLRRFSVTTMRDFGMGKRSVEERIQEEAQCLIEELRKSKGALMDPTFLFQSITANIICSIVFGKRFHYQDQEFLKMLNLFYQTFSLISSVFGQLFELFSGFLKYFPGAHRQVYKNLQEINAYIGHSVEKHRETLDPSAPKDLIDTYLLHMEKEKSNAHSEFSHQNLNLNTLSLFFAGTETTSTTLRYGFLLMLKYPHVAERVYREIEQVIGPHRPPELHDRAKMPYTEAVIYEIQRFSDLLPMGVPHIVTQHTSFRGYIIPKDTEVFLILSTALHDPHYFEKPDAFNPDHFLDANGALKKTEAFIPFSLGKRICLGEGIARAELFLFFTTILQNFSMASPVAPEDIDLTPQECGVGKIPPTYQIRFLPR

[2] = test system: CYP1A2, CYP2B6, CYP2C8, CYP2C9, CYP2D6, CYP2E1, CYP3A4/5; experiment: Inhibitory DDI evaluation, cocktail incubation in HLM, all probe reactions; format: in vitro ADME; details: human, pooled human liver microsomes
[3] = cited from earlier work
CYP2C8 [4] = molecular target: T3, CYP2C8 (Homo sapiens, UniProt P10632); experiment: Inhibitory DDI evaluation, cocktail incubation in HLM; format: in vitro ADME
T3 sequence (P10632 1-490): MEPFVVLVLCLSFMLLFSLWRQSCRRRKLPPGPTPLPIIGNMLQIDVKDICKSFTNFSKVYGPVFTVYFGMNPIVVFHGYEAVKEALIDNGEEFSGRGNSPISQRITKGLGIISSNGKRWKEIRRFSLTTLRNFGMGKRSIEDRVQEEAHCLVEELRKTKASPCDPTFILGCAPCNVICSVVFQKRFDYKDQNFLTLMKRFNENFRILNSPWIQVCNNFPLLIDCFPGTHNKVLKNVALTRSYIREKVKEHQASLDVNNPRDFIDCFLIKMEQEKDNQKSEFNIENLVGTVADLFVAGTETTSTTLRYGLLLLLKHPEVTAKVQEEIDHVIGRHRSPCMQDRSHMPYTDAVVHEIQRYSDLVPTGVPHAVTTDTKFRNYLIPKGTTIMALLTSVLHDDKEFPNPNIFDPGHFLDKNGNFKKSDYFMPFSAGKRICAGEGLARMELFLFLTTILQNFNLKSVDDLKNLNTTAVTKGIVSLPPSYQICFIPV

CYP2D6 = CYP2D6 (Homo sapiens, UniProt P10635); experiment: as above; format: in vitro ADME
CYP2C8 [5] = molecular target: T3, CYP2C8; experiment: Phase I enzyme determination in HLM with CYP-specific inhibitor quercetin; details: quercetin 10 μM
recombinant human UGT1A9 = experiment: Phase II enzyme determination with recombinant human UGT; format: in vitro ADME; details: rotundic acid 2.5 μM, UGT1A9 0.25 mg protein/mL, 20 min
recombinant human UGT1A1 = experiment: as above; format: in vitro ADME; details: rotundic acid 2.5 μM, UGT1A1 0.25 mg protein/mL, 20 min
recombinant human UGT1A6 = experiment: as above; format: in vitro ADME; details: rotundic acid 2.5 μM, UGT1A6 0.25 mg protein/mL, 20 min
recombinant human UGT2B7 = experiment: as above; format: in vitro ADME; details: rotundic acid 2.5 μM, UGT2B7 0.25 mg protein/mL, 20 min
recombinant human UGT1A4 = experiment: as above; format: in vitro ADME; details: rotundic acid 2.5 μM, UGT1A4 0.25 mg protein/mL, 20 min

Chain of CYP2C9 (P11712 whole entry): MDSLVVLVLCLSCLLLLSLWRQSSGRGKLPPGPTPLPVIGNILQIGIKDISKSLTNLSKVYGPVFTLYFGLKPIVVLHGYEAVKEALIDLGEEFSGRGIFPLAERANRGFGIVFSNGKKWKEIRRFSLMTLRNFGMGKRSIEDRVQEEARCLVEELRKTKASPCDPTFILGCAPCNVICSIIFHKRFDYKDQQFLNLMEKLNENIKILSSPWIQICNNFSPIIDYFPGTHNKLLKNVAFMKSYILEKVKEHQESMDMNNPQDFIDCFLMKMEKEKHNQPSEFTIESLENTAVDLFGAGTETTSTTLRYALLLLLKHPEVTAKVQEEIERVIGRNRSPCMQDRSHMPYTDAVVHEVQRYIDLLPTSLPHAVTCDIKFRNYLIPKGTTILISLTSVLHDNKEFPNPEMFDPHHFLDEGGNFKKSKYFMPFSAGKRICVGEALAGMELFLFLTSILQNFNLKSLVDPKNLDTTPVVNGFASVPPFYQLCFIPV
Chain of CYP2E1 (P05181 whole entry): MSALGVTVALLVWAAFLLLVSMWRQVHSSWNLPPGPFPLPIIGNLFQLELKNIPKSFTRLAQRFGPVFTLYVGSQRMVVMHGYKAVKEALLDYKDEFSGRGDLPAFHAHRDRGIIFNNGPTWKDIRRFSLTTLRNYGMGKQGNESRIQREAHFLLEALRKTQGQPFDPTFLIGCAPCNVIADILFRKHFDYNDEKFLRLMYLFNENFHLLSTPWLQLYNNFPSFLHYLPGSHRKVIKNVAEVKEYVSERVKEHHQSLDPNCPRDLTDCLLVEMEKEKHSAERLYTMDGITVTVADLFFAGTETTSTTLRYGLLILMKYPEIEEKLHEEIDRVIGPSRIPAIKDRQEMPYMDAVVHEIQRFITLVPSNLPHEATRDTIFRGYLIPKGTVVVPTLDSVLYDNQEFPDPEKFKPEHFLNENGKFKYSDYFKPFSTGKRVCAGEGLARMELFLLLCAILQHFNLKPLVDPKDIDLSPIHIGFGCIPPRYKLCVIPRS
Chain of CYP2D6 (P10635 whole entry): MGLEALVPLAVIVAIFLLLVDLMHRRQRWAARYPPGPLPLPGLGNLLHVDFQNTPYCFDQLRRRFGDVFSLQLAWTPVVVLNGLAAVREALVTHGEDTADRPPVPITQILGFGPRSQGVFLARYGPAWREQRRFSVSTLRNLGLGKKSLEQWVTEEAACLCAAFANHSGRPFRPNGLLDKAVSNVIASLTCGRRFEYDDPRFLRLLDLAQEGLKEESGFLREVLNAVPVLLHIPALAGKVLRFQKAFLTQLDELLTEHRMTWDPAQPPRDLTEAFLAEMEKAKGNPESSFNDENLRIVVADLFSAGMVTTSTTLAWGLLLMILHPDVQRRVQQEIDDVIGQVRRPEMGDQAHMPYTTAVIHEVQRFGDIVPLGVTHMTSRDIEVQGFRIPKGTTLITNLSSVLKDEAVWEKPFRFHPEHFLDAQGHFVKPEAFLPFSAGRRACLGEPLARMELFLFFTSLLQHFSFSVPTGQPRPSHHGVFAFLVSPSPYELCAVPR

SMILES	IC50 (CYP1A2) [µM]	stability in the negative control assay [1]	enzymes catalyzing hydroxylation (CYP3A4/5)	IC50 (CYP2E1) [µM]	IC50 (CYP2C9) [µM]	IC50 (CYP2B6) [µM]	IC50 at 20 min [2] [µM]	IC50 (CYP2C8 [4]) [µM]	IC50 (CYP2D6) [µM]	other results
C[C@@H]1CC[C@]2(C(=O)O[C@@H]3O[C@H](CO)[C@@H](O)[C@H](O)[C@H]3O)CC[C@]3(C)C(=CC[C@@H]4[C@@]5(C)CC[C@H](O)[C@@](C)(CO)[C@@H]5CC[C@]43C)[C@@H]2[C@]1(C)O [pedunculoside]	> 50	stable	mainly catalyzed by CYP3A4/5 and partly by CYP2C8	> 50	> 50	> 50	> 50	> 50	> 50	Cmax ([3]; plasma, after oral administration, converted from ng/mL): 154 to 768 nM; elimination half-life ([3]; rats, oral or intravenous): short
O=c1c(O)c(-c2ccc(O)c(O)c2)oc2cc(O)cc(O)c12 [quercetin]										generation rate of PE + O (1) (CYP2C8 [5]): approximately 45%; generation rate of PE + O (2) (CYP2C8 [5]): approximately 60%
C[C@@H]1CC[C@]2(C(=O)O)CC[C@]3(C)C(=CC[C@@H]4[C@@]5(C)CC[C@H](O)[C@@](C)(CO)[C@@H]5CC[C@]43C)[C@@H]2[C@]1(C)O [rotundic acid]	> 50	stable	almost exclusively catalyzed by CYP3A4/5	> 50	> 50	> 50	> 50	> 50	> 50	metabolized after incubation for 120 min ([1]; ~1 μM, HLM, UDPGA absent (UDPGA-)): ~ 50%; compound remaining after 120 min ([1]; ~1 μM, HLM, absence of the NADPH regeneration system (NADPH-)): approximately 25%; rotundic acid remained after 120 min ([1]; ~1 μM, HLM, normal group, under regular conditions): less than 10%; generation of glucuronidated rotundic acid (recombinant human UGT1A9): not detected; generation of glucuronidated rotundic acid (recombinant human UGT1A1): not detected; generation of glucuronidated rotundic acid (recombinant human UGT1A6): not detected; generation of glucuronidated rotundic acid (recombinant human UGT2B7): not detected; generation of glucuronidated rotundic acid (recombinant human UGT1A4): detected
